The results in this text go back to ChEMBL document CHEMBL1201862, “PubChem BioAssay data set” (2004).

The test system of assay [1] is H9c2. As to the kind of experiment: cells. The format is functional, cell-based. The note with it: Rattus norvegicus, H9c2, Myocardium.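 Further: confirmatory concentration-response retest of ultra-high-throughput screening hits for modulation of myocardial damage; cell death induced by hydrogen peroxide oxidative stress; compound pretreatment for 60 min then peroxide exposure for 2 h; potency is for protecting the cells against peroxide damage rather than for killing them.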
Assay [2] is described as follows: Counterscreen for inhibitors of Trypanosoma brucei methionyl tRNA synthetase (MetRS): Luminescence-based cell-based high throughput dose response assay to identify compounds that are cytotoxic to Jurkat human T lymphocyte cells. The class given is functional. For orientation: A counterscreen serves to expose hits that act by an unwanted route or on another target.

Assay [3] has as its target Steroidogenic factor 1 (Homo sapiens, UniProt Q13285). In words: Counterscreen for inverse agonists of the liver receptor homolog-1 (LRH-1; NR5A2): Luminescence-based cell-based high throughput dose response assay to identify inverse agonists of the Steroidogenic Factor 1 Nuclear Receptor (SF1; NR5A1). The class given is functional.
Assay [4] addresses Nuclear receptor subfamily 5 group A member 2 (Homo sapiens, UniProt O00482). The class given is functional, cell-based.
Assay [5] can be described thus: nonselective StAR promoter luciferase inhibitors – cell-based, luminescence, luciferase reporter, counter-screen for LRH-1 inverse agonist project, dose response (AID 651969). The class given is functional. (In general: A reporter such as luciferase makes a cellular process visible.)
Assay [6] addresses Phospholipase D2 (Homo sapiens, UniProt O14939). In words: cellular phospholipase D2 inhibition IC50 – cell-based, dose response (AID 602147).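 Further: cellular assay in HEK293 cells overexpressing GFP-tagged PLD2.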 The class given is functional.
Assay [7] addresses T1, Phospholipase D1 (Homo sapiens, UniProt Q13393).
T1 sequence (Q13393 whole entry): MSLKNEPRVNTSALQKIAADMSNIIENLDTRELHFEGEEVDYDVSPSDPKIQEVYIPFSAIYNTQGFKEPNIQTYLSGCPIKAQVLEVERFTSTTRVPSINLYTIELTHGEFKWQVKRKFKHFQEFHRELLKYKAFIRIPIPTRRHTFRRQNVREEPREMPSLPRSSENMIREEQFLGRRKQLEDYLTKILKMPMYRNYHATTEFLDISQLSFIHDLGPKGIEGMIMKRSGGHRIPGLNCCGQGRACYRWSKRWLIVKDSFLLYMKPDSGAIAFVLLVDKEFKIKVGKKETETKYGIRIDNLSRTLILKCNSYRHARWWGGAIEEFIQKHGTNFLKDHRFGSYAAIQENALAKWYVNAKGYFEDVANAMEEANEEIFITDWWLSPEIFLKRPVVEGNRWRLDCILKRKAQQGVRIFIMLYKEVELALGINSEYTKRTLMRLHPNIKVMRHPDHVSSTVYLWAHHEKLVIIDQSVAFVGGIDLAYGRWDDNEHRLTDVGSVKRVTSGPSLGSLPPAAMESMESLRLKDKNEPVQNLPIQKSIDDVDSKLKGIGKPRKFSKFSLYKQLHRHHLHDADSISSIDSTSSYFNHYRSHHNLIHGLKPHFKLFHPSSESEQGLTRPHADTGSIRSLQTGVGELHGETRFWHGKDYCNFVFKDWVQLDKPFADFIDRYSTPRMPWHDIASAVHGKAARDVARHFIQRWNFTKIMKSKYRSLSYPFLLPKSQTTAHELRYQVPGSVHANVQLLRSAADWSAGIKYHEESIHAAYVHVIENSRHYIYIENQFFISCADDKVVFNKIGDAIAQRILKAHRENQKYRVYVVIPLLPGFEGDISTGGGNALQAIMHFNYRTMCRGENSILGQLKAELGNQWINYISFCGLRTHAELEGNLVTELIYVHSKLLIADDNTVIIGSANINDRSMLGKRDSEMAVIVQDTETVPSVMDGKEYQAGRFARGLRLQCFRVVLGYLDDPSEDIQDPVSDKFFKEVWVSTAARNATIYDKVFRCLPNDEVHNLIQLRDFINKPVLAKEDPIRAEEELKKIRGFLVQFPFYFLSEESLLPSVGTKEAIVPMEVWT
In words: cellular phospholipase D1 inhibition IC50 – cell-based, dose response (AID 602151).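 Further: cellular PLD1 assay in Calu-1 cells stimulated with PMA.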 The format is functional.

The target of assay [8] is Aurora kinase B (Homo sapiens, UniProt Q96GD4). The format is functional.
Aurora kinase B, sequence (Q96GD4 whole entry): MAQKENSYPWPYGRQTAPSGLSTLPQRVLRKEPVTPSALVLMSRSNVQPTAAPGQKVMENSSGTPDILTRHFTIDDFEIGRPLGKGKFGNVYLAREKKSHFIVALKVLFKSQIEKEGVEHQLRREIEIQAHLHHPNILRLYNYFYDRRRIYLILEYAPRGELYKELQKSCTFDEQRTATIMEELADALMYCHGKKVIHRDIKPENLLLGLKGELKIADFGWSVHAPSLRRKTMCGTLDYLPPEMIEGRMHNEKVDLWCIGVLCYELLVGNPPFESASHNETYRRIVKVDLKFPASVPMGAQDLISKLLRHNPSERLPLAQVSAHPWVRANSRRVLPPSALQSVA
The target in assay [9] is Vascular endothelial growth factor receptor 2 (Homo sapiens, UniProt P35968). The class given is functional.
The target of assay [10] is T2, Aurora kinase A (Homo sapiens, UniProt O14965).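 Further: value from the Navigating the Kinome kinase panel profiling, panel entry STK6.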
T2 sequence (O14965 whole entry): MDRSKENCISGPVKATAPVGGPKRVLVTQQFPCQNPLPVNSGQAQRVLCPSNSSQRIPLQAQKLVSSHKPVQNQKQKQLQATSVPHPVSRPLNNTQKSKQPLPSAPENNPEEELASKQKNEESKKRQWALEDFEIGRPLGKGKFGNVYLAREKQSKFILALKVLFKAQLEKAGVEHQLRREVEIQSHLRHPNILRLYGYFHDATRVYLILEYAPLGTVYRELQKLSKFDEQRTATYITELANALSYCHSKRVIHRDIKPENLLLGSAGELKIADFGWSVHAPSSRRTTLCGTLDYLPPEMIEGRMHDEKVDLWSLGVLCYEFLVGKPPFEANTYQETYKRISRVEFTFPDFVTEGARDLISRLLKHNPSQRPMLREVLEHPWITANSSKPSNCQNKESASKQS
The class given is functional.

Assay [11] addresses cAMP-dependent protein kinase catalytic subunit alpha (Homo sapiens, UniProt P17612). The class given is functional.
The target in assay [12] is Serine/threonine-protein kinase pim-1 (Homo sapiens, UniProt P11309). The class given is functional.
Serine/threonine-protein kinase pim-1, sequence (P11309 whole entry): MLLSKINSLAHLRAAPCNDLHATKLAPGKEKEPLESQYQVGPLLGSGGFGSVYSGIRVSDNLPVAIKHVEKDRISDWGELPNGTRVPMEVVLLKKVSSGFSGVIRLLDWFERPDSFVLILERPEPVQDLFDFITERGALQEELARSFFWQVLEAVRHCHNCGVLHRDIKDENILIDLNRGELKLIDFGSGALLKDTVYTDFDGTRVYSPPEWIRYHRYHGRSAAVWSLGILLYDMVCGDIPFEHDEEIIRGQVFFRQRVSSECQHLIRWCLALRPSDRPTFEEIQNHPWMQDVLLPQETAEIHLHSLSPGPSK
Assay [13] deals with MAP kinase-interacting serine/threonine-protein kinase 2 (Homo sapiens, UniProt Q9HBH9). The format is functional.
Assay [14] deals with Mitogen-activated protein kinase kinase kinase kinase 4 (Homo sapiens, UniProt O95819). The format is functional.
Mitogen-activated protein kinase kinase kinase kinase 4, sequence (O95819 whole entry): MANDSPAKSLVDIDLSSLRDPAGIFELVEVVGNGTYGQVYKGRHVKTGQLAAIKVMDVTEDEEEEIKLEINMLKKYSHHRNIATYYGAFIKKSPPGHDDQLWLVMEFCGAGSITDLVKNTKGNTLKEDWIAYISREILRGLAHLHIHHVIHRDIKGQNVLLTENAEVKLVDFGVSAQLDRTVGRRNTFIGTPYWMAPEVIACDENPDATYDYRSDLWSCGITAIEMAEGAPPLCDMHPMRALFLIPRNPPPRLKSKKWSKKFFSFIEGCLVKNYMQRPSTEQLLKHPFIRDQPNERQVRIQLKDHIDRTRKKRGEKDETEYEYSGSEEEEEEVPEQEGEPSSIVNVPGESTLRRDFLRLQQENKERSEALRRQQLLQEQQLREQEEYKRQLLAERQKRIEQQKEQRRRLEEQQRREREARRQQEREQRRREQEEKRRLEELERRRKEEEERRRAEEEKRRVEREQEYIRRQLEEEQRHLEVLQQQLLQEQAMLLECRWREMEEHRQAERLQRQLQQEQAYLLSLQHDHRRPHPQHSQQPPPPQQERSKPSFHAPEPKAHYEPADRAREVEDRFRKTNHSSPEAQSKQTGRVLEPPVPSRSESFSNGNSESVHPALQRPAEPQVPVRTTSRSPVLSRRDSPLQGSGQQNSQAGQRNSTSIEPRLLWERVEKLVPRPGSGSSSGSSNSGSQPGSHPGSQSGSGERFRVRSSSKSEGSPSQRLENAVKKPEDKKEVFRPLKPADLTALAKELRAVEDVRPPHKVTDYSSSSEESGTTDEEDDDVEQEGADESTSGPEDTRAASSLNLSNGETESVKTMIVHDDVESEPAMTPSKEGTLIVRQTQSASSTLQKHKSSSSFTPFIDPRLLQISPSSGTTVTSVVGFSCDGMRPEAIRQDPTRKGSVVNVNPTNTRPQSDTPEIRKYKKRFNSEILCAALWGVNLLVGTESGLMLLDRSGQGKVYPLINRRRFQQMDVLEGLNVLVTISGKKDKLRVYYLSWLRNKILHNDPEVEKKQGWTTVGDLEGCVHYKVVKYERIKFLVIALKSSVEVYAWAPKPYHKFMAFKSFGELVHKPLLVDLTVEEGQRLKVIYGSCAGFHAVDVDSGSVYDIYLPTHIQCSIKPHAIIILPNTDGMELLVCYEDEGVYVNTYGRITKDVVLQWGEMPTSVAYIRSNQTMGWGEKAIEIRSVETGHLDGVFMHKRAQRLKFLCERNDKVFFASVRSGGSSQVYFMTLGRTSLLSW
Assay [15] concerns the target Glycogen synthase kinase-3 beta (Homo sapiens, UniProt P49841). The format is functional.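 Further: value comes from a broad kinome profiling panel, with GSK3B as the panel member.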
The target in assay [16] is Dual specificity protein kinase CLK4 (Homo sapiens, UniProt Q9HAZ1). The class given is functional.
In assay [17] the target is Homeodomain-interacting protein kinase 2 (Homo sapiens, UniProt Q9H2X6). The class given is functional.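 Further: measured within a kinome-wide kinase profiling panel, HIPK2 being one panel member.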
Homeodomain-interacting protein kinase 2, sequence (Q9H2X6 whole entry): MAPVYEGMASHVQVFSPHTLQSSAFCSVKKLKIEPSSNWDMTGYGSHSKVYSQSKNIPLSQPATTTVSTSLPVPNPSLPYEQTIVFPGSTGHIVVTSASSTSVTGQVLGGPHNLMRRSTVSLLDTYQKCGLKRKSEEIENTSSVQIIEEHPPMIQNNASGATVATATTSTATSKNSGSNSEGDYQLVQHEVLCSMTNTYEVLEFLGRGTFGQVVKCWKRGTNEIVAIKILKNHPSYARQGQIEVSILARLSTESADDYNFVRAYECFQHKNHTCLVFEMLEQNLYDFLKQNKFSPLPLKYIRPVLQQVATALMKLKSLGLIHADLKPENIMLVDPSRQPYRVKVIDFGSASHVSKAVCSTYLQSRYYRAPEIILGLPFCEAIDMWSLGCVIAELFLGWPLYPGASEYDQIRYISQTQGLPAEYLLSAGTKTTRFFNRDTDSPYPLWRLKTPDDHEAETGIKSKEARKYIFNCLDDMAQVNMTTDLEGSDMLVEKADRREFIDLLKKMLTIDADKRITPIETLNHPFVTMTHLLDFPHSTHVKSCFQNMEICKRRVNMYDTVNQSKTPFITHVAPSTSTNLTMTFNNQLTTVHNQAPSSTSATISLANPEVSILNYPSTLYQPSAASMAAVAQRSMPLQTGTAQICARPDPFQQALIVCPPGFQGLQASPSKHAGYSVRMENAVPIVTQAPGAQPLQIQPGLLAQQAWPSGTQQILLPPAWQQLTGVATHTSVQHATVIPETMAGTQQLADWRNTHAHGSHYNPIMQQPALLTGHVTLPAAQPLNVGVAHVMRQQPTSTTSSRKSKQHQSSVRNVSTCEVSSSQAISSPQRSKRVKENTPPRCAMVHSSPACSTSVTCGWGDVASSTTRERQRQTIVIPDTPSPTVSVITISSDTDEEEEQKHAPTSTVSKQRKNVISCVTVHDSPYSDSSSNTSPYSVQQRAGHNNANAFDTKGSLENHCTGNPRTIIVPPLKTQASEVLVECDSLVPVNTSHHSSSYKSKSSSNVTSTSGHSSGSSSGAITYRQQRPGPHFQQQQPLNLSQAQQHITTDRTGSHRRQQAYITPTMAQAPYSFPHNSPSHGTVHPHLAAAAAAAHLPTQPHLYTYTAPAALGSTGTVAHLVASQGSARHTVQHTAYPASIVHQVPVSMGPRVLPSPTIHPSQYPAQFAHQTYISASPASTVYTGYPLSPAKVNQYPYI
Assay [18] deals with Cell division cycle 7-related protein kinase (Homo sapiens, UniProt O00311). The class given is functional.
In assay [19] the target is T3, Interleukin-1 receptor-associated kinase 4 (Homo sapiens, UniProt Q9NWZ3).
T3 sequence (Q9NWZ3 whole entry): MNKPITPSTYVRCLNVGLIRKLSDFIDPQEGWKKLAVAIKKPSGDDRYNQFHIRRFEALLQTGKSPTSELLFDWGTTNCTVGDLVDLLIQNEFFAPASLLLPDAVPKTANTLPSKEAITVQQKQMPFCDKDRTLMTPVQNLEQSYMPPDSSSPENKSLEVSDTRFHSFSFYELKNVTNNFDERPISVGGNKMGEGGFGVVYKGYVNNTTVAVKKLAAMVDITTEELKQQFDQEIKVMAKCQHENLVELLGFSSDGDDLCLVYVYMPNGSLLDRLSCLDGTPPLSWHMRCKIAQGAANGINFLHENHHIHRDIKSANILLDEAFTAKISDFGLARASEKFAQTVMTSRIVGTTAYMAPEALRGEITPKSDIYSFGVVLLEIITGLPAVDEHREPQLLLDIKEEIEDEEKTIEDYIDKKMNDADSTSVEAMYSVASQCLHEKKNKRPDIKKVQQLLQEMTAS
The class given is functional.

The target in assay [20] is Adenosylmethionine-8-amino-7-oxononanoate aminotransferase (Mycobacterium tuberculosis, UniProt P9WQ81). As to the kind of experiment: Mycobacterium tuberculosis BioA enzyme inhibitor Measured in Biochemical System Using Plate Reader - 2163-02_Inhibitor_Dose_CherryPick_Activity. The class given is functional, Mycobacterium tuberculosis UT205.
Adenosylmethionine-8-amino-7-oxononanoate aminotransferase, sequence (P9WQ81 whole entry): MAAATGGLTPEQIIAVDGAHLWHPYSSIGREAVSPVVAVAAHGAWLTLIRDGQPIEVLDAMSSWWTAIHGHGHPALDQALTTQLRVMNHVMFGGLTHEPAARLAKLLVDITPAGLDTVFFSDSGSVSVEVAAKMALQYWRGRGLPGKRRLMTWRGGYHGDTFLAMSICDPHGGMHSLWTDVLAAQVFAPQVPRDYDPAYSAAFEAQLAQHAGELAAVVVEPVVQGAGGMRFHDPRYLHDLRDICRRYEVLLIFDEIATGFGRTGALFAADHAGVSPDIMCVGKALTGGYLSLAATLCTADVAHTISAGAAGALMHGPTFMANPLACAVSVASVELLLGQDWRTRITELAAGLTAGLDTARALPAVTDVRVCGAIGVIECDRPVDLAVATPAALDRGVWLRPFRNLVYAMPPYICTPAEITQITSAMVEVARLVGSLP
Assay [21] has as its target T4, Apoptotic protease-activating factor 1 (Homo sapiens, UniProt O14727).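 Further: caspase-3 cleavage of fluorogenic Rh110 DEVD substrate downstream of apoptosome activation.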
T4 sequence (O14727 whole entry): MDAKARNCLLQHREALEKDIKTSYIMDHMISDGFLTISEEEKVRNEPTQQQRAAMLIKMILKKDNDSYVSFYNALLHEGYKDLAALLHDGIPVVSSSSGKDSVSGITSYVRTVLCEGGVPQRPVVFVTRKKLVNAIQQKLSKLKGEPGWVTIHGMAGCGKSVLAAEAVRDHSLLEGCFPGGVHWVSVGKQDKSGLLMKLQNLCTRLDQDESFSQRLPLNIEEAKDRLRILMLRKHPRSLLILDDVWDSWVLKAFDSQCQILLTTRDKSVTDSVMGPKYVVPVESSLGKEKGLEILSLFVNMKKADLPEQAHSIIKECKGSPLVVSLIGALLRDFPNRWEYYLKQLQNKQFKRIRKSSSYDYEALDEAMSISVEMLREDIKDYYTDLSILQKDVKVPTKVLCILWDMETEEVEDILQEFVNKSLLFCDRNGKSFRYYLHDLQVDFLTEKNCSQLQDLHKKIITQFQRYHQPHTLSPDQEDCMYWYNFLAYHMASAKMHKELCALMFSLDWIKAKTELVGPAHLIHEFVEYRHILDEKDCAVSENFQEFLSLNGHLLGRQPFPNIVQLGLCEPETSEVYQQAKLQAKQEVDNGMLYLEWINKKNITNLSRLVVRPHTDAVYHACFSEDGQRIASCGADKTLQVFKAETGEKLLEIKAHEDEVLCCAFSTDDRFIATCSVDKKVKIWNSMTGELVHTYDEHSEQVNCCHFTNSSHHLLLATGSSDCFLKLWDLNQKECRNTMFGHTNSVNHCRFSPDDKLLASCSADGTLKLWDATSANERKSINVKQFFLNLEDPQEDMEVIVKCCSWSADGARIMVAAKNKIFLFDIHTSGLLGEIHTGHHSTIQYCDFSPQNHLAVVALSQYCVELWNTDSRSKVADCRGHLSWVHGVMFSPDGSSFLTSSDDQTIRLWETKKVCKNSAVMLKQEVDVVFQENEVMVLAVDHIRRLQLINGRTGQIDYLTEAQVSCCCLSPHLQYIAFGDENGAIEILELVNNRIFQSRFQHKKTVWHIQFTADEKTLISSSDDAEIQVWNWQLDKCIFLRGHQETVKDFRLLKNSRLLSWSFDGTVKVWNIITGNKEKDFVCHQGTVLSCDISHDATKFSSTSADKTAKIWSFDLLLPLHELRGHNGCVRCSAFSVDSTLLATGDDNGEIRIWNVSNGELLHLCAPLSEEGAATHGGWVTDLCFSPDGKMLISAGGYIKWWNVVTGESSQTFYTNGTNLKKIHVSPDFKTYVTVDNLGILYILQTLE
As to the kind of experiment: SAR analysis of small molecule Activators of Apaf-1 in a Fluorescent assay. The format is functional. The note with it: read-out: EC50_Mean.

For assay [22], the target named is Interleukin-8 (Homo sapiens, UniProt P10145). In words: Dose Response confirmation of uHTS small molecule hits for cystic fibrosis induced NFkb Inhibitors in a PAF-induced IL8 counterscreen. The note with it: read-out: IC50_Mean. The class given is functional.

Molecules are shown by their SMILES. Calls of active or inactive are those of the source.

Phospholipase D2, sequence (O14939 whole entry): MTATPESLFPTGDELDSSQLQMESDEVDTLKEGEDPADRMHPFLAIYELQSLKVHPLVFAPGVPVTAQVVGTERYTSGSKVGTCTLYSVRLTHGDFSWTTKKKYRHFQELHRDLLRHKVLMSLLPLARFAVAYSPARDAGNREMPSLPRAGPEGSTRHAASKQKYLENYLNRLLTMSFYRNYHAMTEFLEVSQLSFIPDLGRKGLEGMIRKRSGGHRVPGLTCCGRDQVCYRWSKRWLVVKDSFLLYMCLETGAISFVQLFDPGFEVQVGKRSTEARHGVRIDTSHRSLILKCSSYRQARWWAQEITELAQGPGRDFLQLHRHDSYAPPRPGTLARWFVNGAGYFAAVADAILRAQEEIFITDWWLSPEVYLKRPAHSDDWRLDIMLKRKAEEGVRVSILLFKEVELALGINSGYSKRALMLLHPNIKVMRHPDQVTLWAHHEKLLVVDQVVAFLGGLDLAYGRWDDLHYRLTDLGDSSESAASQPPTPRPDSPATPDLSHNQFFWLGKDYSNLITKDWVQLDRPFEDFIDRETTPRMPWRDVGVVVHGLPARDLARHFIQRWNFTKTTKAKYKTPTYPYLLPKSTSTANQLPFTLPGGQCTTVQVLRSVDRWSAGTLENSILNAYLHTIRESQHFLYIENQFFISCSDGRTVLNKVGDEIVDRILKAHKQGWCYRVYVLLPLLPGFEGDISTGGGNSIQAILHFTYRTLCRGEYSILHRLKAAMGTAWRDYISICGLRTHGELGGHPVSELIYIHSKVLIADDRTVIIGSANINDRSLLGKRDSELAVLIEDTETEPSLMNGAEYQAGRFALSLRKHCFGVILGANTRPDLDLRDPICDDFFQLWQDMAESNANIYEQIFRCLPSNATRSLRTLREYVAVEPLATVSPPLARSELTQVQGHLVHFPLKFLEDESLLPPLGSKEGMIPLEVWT
Nuclear receptor subfamily 5 group A member 2, sequence (O00482 whole entry): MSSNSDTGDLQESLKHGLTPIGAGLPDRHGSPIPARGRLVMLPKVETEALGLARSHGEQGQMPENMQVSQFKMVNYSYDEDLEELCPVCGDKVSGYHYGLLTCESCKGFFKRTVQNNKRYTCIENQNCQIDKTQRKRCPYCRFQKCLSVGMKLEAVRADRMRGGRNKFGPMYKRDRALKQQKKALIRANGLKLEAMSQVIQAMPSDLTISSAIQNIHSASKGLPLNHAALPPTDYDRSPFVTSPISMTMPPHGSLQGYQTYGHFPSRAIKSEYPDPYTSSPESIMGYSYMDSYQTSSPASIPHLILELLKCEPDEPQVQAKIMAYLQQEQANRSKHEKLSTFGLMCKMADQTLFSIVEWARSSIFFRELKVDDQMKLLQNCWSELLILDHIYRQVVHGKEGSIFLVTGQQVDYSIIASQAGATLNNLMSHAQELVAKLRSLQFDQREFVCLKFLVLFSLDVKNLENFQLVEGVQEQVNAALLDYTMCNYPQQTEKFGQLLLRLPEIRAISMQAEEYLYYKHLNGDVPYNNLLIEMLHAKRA

With `Cc1cc(Cl)ccc1OCCCC(=O)NNC(=O)c1ccccc1O`, the IC50 in assay [1] was > 79000 nM (inactive); in assay [2], 83300 nM (inactive).

`Cc1ccc(NC(=O)CSc2nnc([C@@H]3CCCN3C(=O)OC(C)(C)C)o2)c(C)c1`: the IC50 is 932 nM (active) in assay [3], 1330 nM (active) in assay [4] and 35900 nM (inactive) in assay [5].

`COc1ccc(NC(=O)CSc2ccc3c(c2)OCCO3)cc1`: the results for the IC50 in assay [3], in assay [4] and in [5] were 5700 nM (active), 35900 nM (inactive) and 35900 nM (inactive), respectively.

Regarding `CN(CCN1CCC(n2c(=O)[nH]c3ccccc32)CC1)C(=O)c1ccc2ccccc2c1`, the IC50 in assay [6] was 20000 nM (active); in assay [7] it was 2060 nM (active).

`C[C@@H](CN1CCC2(CC1)C(=O)NCN2c1ccccc1)NC(=O)[C@@H]1C[C@H]1c1ccccc1`: the IC50 was 20000 nM (active) in assay [6] and 2560 nM (active) in assay [7].

Turning to `C[C@H](CN1CCC2(CC1)C(=O)NCN2c1ccccc1)NC(=O)c1cc2cc(F)ccc2[nH]1`, the IC50 in assay [6] is 23 nM (active); in assay [7], 2 nM (active).

Usually Ki stands for a dissociation constant, usually derived from enzyme kinetics or from competition with a known ligand. For the compound `CCCCS(=O)(=O)Nc1ccc2c(c1)C(=NO)c1ccccc1-2`, the Ki is 10 nM (active) in assay [8], 1580 nM (active) in assay [9] and 1260 nM (active) in assay [10].

Take `c1ccc(Cn2nnc(-c3ccc4[nH]ncc4c3)c2-c2ccccc2)cc1`: the Ki is 31.6 nM (active) in assay [11]; 3160 nM (active) in assay [12]; 39.8 nM (active) in [13]; 794 nM (active) in assay [14]; 10 nM (active) in assay [15]; 5.01 nM (active) in assay [16]. Moreover, the results for the Ki in assay [17], in assay [18] and in assay [19] were 1000 nM (active), 0.631 nM (active) and > 10000 nM (inactive), respectively.

As a reminder, the AC50 is the concentration giving half of the maximal activity seen. Turning to `O=C(Nc1nccs1)[C@H]1[C@H](CO)[C@H]2Cn3c(ccc(-c4cccnc4)c3=O)[C@H]2N1CC1CCCC1`, the half-maximal activity concentration (AC50) in assay [20] was 8950 nM (active).

Consider `c1cnc2[nH]cc(-c3ccnc(NCC4CCCCC4)n3)c2c1`, for which the inhibition constant Ki is 200 nM (active) in assay [11]; > 10000 nM (inactive) in assay [12]; 79.4 nM (active) in assay [13]; 20 nM (active) in assay [14]; 126 nM (active) in [15]; 15.8 nM (active) in assay [17]. In addition, the Ki was 7.94 nM (active) in assay [18] and 316 nM (active) in assay [19].

With `O=C(C[C@@H]1C[C@@H]2c3cc(NC(=O)c4cccnc4)ccc3O[C@@H]2[C@@H](CO)O1)NCCc1ccccc1`, the AC50 in assay [20] is 6920 nM (active).

Regarding `COC(=O)[C@@H]1COC(c2cc([N+](=O)[O-])ccc2[N+](=O)[O-])=N1`, in assay [21], the EC50 is > 100000 nM (inactive).

Turning to `CC(=O)Oc1ccccc1C(=O)Oc1ccc(/C=N/n2cnnc2)cc1`, the IC50 in assay [22] is 4670 nM (active).
